# Columns and labels:
# Assay type in all cases: in vivo
# SCPMA (sea clubrush) = assay: In-water applied herbicidal mixtures, transplanted paddy rice, greenhouse (Example II)
# [1] = system: VIOTR (Viola tricolor (L.), wild pansy); assay: Postemergence foliar-applied herbicidal mixtures, cereal crops, greenhouse (Example III); conditions: Compound A Benzyl Ester 5 gai/ha, visual score 0 to 100 percent after 20-22 days
# Method: (§1) Seeds of the desired test plant species were planted in Sun Gro MetroMix® 306 planting mixture, which typically has a pH of 6.0 to 6.8 and an organic matter content of about 30 percent, in plastic pots with a surface area of 103.2 square centimeters (cm^2). […] The plants were grown for 7-36 days in a greenhouse with an approximate 14 hour photoperiod which was maintained at about 18° C. during the day and about 17° C. during the night. Nutrients and water were added on a regular basis and supplemental lighting was provided with overhead metal halide 1000-Watt lamps as necessary. The plants were employed for testing when they reached the second or third true leaf stage.
# (§2) Treatments consisted of the benzyl ester of 4-amino-3-chloro-5-fluoro-6-(4-chloro-2-fluoro-3-methoxy-phenyl)pyridine-2-carboxylic acid (Compound A), formulated as an SC, a second cereal herbicide alone and then both in combination.
# (§3) Other herbicidal components were applied on an active ingredient basis and included acetolactate synthase (ALS)-inhibiting herbicides (sulfonamide chemical class) florasulam formulated as Derby® and pyroxsulam formulated as PowerFlex®. A measured aliquot of benzyl ester of 4-amino-3-chloro-5-fluoro-6-(4-chloro-2-fluoro-3-methoxy-phenyl)pyridine-2-carboxylic acid (Compound A) was placed in 25 milliliter (mL) glass vials and diluted in a volume of 1.25% (v/v) AgriDex® crop oil concentrated to obtain a stock solution. Compound requirements are based upon a 12 mL application volume at a rate of 187 liters per hectare (L/ha). […] Formulated compounds were applied to the plant material with an overhead Mandel track sprayer equipped with an 8002E nozzle calibrated to deliver 187 L/ha over an application area of 0.503 square meters (m^2) at a spray height of 18 inches (46 cm) above average plant canopy. Control plants were sprayed in the same manner with the solvent blank.
# (§4) The treated plants and control plants were placed in a greenhouse as described above and watered by sub-irrigation to prevent wash-off of the test compounds. After 20-22 days, the condition of the test plants as compared with that of the control plants was determined visually and scored on a scale of 0 to 100 percent where 0 corresponds to no injury and 100 corresponds to complete kill.
# (§5) Colby's equation was used to determine the herbicidal effects expected from the mixtures (Colby, S. R. 1967. Calculation of the synergistic and antagonistic response of herbicide combinations. Weeds 15:20-22.).
# (§6) The following equation was used to calculate the expected activity of mixtures containing two active ingredients, A and B: Expected=A+B−(A×B/100)
# [2] = system: MATCH (Chamomilla chamomilla (L.) Rydb., scented mayweed); assay: as above; conditions: Compound A Benzyl Ester 5 gai/ha, visual score 0 to 100 percent after 20-22 days
# Method: as §1, §2, §3, §4, §5, §6
# [3] = system: VERPE (Veronica persica Poir., bird's-eye speedwell); assay: as above; conditions: visual score 0 to 100 percent after 20-22 days
# Method: as §1, §2, §3, §4, §5, §6
# [4] = system: SASKR (Salsola iberica (L.), Russian thistle); assay: as above; conditions: Compound A Benzyl Ester 5 gai/ha, visual score 0 to 100 percent after 20-22 days
# Method: as §1, §2, §3, §4, §5, §6
# [5] = system: LAMPU (Lamium purpureum (L.), purple deadnettle); assay: as above; conditions: Compound A Benzyl Ester 8.75 gai/ha, visual score 0 to 100 percent after 20-22 days
# Method: as §1, §2, §3, §4, §5, §6
# [6] = system: CIRAR (Cirsium arvense (L.) Scop., Canada thistle); assay: as above
# Method: as §1, §2, §3, §4, §5, §6
Compound,Visual Weed Control (%) - 21 DAA SCPMA Obs (SCPMA (sea clubrush); Compound A Benzyl Ester 48 gae/ha),Visual Weed Control (%) - 21 DAA SCPMA Obs (SCPMA (sea clubrush); Compound A Benzyl Ester 96 gae/ha),VIOTR Obs [1],MATCH Obs [2],VERPE Obs ([3]; Compound A Benzyl Ester 5 gai/ha),VERPE Obs ([3]; Compound A Benzyl Ester 8.75 gai/ha),SASKR Obs [4],LAMPU Obs [5],"CIRAR Obs ([6]; Compound A Benzyl Ester 5 gai/ha, visual score 0 to 100 percent after 20-22 days)","CIRAR Obs ([6]; Compound A Benzyl Ester 8.75 gai/ha, visual score after 20-22 days, Table 17)","CIRAR Obs ([6]; Compound A Benzyl Ester 8.75 gai/ha, visual score after 20-22 days, Table 18)",Visual Weed Control (%) - 21 DAA SCPMA Obs (SCPMA (sea clubrush); Penoxsulam 10 gai/ha),Visual Weed Control (%) - 21 DAA SCPMA Obs (SCPMA (sea clubrush); Penoxsulam 20 gai/ha),Visual Weed Control (%) - 21 DAA SCPMA Obs (SCPMA (sea clubrush); Penoxsulam 40 gai/ha)
"COc1c(Cl)ccc(-c2nc(C(=O)OCc3ccccc3)c(Cl)c(N)c2F)c1F [Compound A Benzyl Ester, benzyl ester of 4-amino-3-chloro-5-fluoro-6-(4-chloro-2-fluoro-3-methoxy-phenyl)pyridine-2-carboxylic acid]",0%,0%,13%,13%,37%,50%,57%,83%,40%,40%,40%,,,
"COc1cnc(OC)n2nc(NS(=O)(=O)c3c(OCC(F)F)cccc3C(F)(F)F)nc12 [Penoxsulam, 2-(2,2-difluoroethoxy)-N-(5,8-dimethoxy[1,2,4]triazolo[1,5-c]pyrimidin-2-yl)-6-(trifluoromethyl)benzenesulfonamide, reference compound]",,,,,,,,,,,,70%,88%,95%

# Source: patent US8906825B2, “Herbicidal compositions comprising 4-amino-3-chloro-5-fluoro-6-(4-chloro-2-fluoro-3-methoxyphenyl) pyridine-2-carboxylic acid or a derivative thereof and triazolopyrimidine sulfonamides” (Dow AgroSciences LLC, priority 2012, dated 2014)
